Laboratory results taken from patent US8552035B2, “Phenanthrenone compounds, compositions and methods” (Pfizer Inc., priority 2008, dated 2013).

Columns and labels:
TNFα = test: LPS-induced human whole blood, TNFα release; type: cell-based
Description: Venous blood from human donors was collected as 10 ml aliquots in tubes containing sodium heparin (BD Vacutainer from Becton Dickinson and Company, Franklin Lakes, N.Y.). Blood was added to sterile polystyrene round bottom 96-well tissue culture plates (Corning Costar) at 180 Blood was placed in a humidified 37 C incubator with 5% CO2 while compounds were prepared (nearly 60 minutes).
Compounds were prepared from 10 mM stock solutions in dimethylsulfoxide (DMSO, Sigma-Aldrich). Stock compound was diluted in DMSO to give appropriate starting concentration then diluted serially 1/3 in DMSO (i.e. 15 μl compound+30 μl DMSO), followed by diluting each serial dilution 1/167 into vehicle solution (2% DMSO in phosphate buffered saline (Dulbecco's Phosphate Buffered Saline without calcium chloride without magnesium chloride, Invitrogen Corporation, Carlsbad Calif.)). Compound or vehicle was added to blood in 10 μl aliquots as triplicates, omitting the outside wells to minimize possible edge effects. The final highest concentration of each compound in the assay ranged from 3 to 0.3 μM. Final DMSO concentration in the assay was 0.1%. The plate containing the samples was gently vortexed to mix and replaced in the incubator. LPS stock (E. coli serotype 0111:B4, Sigma-Aldrich), stored in aliquots of 100 μg/ml in RPMI at −20° C., was diluted […] in RPMI to make a working stock solution. After 60 minutes of incubation, 10 μl of the prepared LPS working stock was added to the blood to a final concentration of 100 ng/ml. Wells to be used as negative control received RPMI media with no LPS. The plate was again gently vortexed and the plates incubated overnight for 22 hours. Following incubation, the blood was centrifuged at 1500×g for 5 minutes and the plasma removed to either freeze at −20° C. or assay for cytokine release.
IL-1β, IFNγ and TNFα protein levels were measured using Meso Scale assay kits (Meso Scale Discovery, Gaithersburg, Md., U.S.A.). Reagents were allowed to come to room temperature. Meso Scale plates were blocked with 150 μl of Meso Scale Block B diluent, gently shaking at room temperature for 60 minutes. Plates were washed 3× with wash buffer (PBS, Invitrogen Corporation, with 0.05% Tween-20, Sigma-Aldrich). Calibrators for standard curves were prepared in human plasma/serum assay diluent as a 1/5 serial dilution to achieve final concentrations ranging from 50000 pg/ml to 3.2 pg/ml. Samples were added at 10 to 20 μl/well and calibrators were added at 20 μl/well then incubated at room temperature with gentle shaking for 2 hours. Plates were again washed 3× with wash buffer. Detection antibody was diluted in human plasma/serum antibody diluent to 1 μg/ml and added to the plate at 20 μl/well. Plates were incubated as before for 2 hours and washed again. Read Buffer T (4×) was diluted 1:1 with mqH20 to 2× concentration and 150 μl added to each well. Plates were read on the SECTOR Imager 6000 (Meso Scale Discovery) to generate raw signal values.
Individual sample signal values were compared to positive and negative controls (vehicle treated blood with LPS and vehicle treated blood without LPS, respectively) to generate % inhibition. Triplicate values were averaged for each donor. The values for three or four donors were averaged and graphed using 4-parameter fit curves in the LabStats plug-in for the Microsoft Excel application.

bone formation rate = test: 28-day mouse side-effect model, cortical bone histomorphometry (bone formation rate); type: in vivo; conditions: oral gavage 28 days, tibia cortical bone formation rate
Description: 10-12 week old female Swiss Webster mice (Taconic, Germantown, N.Y., U.S.A.) weighing 27-29 grams are used in accordance with the guidelines of the Institutional Animal Care and Use Committee and in accordance with NIH guidelines on laboratory animal welfare. Mice are acclimated to the Pfizer animal facility for 3-7 days prior to being placed on study. Prednisolone and DAGR compounds are administered by oral gavage for a total of 28 days. Each treatment group generally contains 8-10 mice. To establish a dosing regimen for the studies, a pilot pharmacodynamic time course experiment is conducted to quantify TNFa repression after a single ED80 dose (determined from the acute LPS endotoxemia mouse model). […] DAGR compounds vary in their required frequency of doses.
During the in-life portion of each study, mice received two IP injections of the fluorochrome calcein (C-0875; Sigma-Aldrich; 20 mg/kg; 200 μL/mouse), dissolved in 2% sodium bicarbonate, on days 1 and 26 for bone histomorphometry measurements. Fluorochrome labels incorporate into the bone mineral and allow measurement of bone formation rate. During the tissue harvest, the left tibia is excised and cleaned for cortical histomorphometry measurements. After all skin and muscle are removed, tibiae are placed in 70% ethanol (4° C.) in the dark for a minimum of 24 hours.
Ground transverse sections are used for histomorphometric analysis of cortical bone^1. Bones are sectioned using a low speed saw (Isomet, Buehler, Lake Bluff, Ill.) equipped with a diamond wafer blade. The end of each tibia is removed proximal to tibia-fibula synostosis and a […] cross-section is cut. Using a roughened glass plate and a cork, sections are ground to […] until transparent and all labels distinguishable under a fluorescent microscope. Sections are dehydrated using the following solutions for a minimum of 2 minutes each: 1) 70% ethanol, 2) 95% ethanol, 3) 100% ethanol, 4) 50/50 ethanol/xylene, and 5) xylene (twice) (Sigma, St. Louis, 534056). Sections are mounted using Eukitt Quick Mounting Medium (Sigma, St. Louis, 03989) and cover-slipped. Using the Osteomeasure Bone Analysis Program (Decatur, Ga.), bone formation rate is calculated by tracing the 1st and 2nd fluorescent labels in addition to tracing the inner and outer perimeter of the bone. Bone formation rate is calculated by the following equation: (Interlabel Width/Label Interval)*(Labeled Perimeter/Bone Perimeter). At least 5 samples are measured from each treatment group in each study.
ED50 and ED80 values are obtained for the various parameters using four-parameter logistic fits of data. For each experiment/dose group, outliers are detected by calculating the number of standard deviations each mouse's value was from the mean of their group and then dividing by the standard deviation of the group. The means and standard deviations used in this calculation omitted the value being examined so that, if it were an outlier, it would have no influence. If the value being examined is more than 2.5 standard deviations from the mean, it was not used in the rest of the calculations.
Percent inhibition values are then calculated for each animal using the means of the vehicle and 10 mpk prednisone control groups. The individual mouse percent inhibition values are then fit to a four-parameter logistic model using the area under curve mean for each group. Since all four parameters are estimated and the lower plateau is not fixed at 0% and the upper plateau was not fixed at 100%, the ED50 and ED80 values are calculated by using an inverse calibration formula for a response equal to 50% or 80%. The designation “nd” means not determined.

Compound: Cc1ncccc1NC(=O)c1ccc2c(c1)C(=O)C[C@@H]1C[C@@](O)(c3ccccc3)[C@](C)(O)C[C@@]21Cc1ccccc1 [Example 1, (4bR,6R,7R,8aS)-4b-benzyl-6,7-dihydroxy-6-methyl-N-(2-methylpyridin-3-yl)-10-oxo-7-phenyl-4b,5,6,7,8,8a,9,10-octahydrophenanthrene-2-carboxamide]
- inhibition at 0.000137174 µM (TNFα; Homo sapiens, 0.137174 nM, mean of donors): 0.604%
- inhibition at 0.000411523 µM (TNFα; Homo sapiens, 0.411523 nM, mean of donors): -3.62%
- inhibition at 0.00123457 µM (TNFα; Homo sapiens, 1.234568 nM, mean of donors): 0.811%
- inhibition at 0.0037037 µM (TNFα; Homo sapiens, 3.703704 nM, mean of donors): 7.09%
- inhibition at 0.0111111 µM (TNFα; Homo sapiens, 11.11111 nM, mean of donors): 18.1%
- inhibition at 0.0333333 µM (TNFα; Homo sapiens, 33.33333 nM, mean of donors): 30.7%
- inhibition at 0.1 µM (TNFα; Homo sapiens, 100 nM, mean of donors): 42.2%
- inhibition at 0.3 µM (TNFα; Homo sapiens, 300 nM, mean of donors): 42.8%
- level of inhibition of TNF (TNFα; ex vivo LPS-stimulated human whole blood, extent of inhibition, concentration not given): 43%
- ED50 at 28 days (bone formation rate; female, Swiss Webster, read-out: BFR (ED50 dose)): 0.12 mg/kg
- BFR (ED80 dose) (bone formation rate): 0.87
